Test results published in patent US12234484B2, “Culture medium for pluripotent stem cells” (PROMOCELL GMBH, priority 2017, dated 2025).

Tests used:
stem cells = conditions: cultured in the absence of FGF2; cited from earlier work
[1] = system: hiPS cell line SBI #SC101A-1; test: hPSC culture, microscopic analysis of morphological growth pattern and proliferation; format: cell-based, human; conditions: defined, feeder-free culture on vitronectin; Example 1 medium containing only the named factor(s); no FGF-2
Procedure: The culture vessel was coated with 0.5 μg/cm^2 of recombinant human vitronectin as ECM. For this, 100 μl of a diluted vitronectin solution per cm^2 of culture vessel surface is applied to the culture vessel with. The coated culture vessel is left for 2 hours at room temperature. The vitronectin solution was aspirated just before seeding the cells.
The cell line used in this experiment is the human foreskin fibroblast derived hiPS cell line SBI #SC101A-1 (obtainable from System Biosciences (SBI), Palo Alto, under the defined reference number).
The stem cell culture medium was prepared as described in Example 1. For cryopreserved cells, a ROCK-Inhibitor (10 μM Y-27632 or 2 μM Thiazovivin) is added to the stem cell culture medium. Alternatively, for existing proliferating cultures a clump passage was performed as described in Example 3 below.
The hPSCs were seeded in a 1:2 to 1:3 ratio (relative to the volume of the tissue culture vessel) into the ECM coated tissue culture vessel using an appropriate amount of culture medium. For example, 2-3 ml per well are used for 6-well plates and 15-25 ml for T-75 flasks.
After plating, the subcultured hPSCs were allowed to attach overnight (12-24 hours).
A medium change was performed: the stem cell culture medium including non-attached cells was aspirated, washed once with Dulbecco's PBS, w/o Ca^2+/Mg^2+ and the cells were provided with fresh culture medium (w/o ROCK-Inhibitors).
A media change was performed every 1-3 days.
The stem cell culture medium was aspirated and the hPSCs were washed twice with Dulbecco's PBS, w/o Ca^2+/Mg^2+. Next, 200-300 μl/cm^2 of dissociation buffer was added and the solution was incubated for 6-10 minutes in the incubator at 37° C. and 5% CO2. The dissociation buffer was carefully aspirated and 1-5 ml of fresh culture medium was added. The colonies were flushed away from the surface using a serological pipet. In order to maintain cell clumps of sufficient size flushing of more than 4-5 times was avoided. Then, cell clumps were dispensed into new ECM-coated culture vessels with fresh stem cell culture medium and the culture was continued according to the cell attachment step (step 2.3) of Example 2.
Induced pluripotent stem cells were cultured in the presence of the stem cell culture medium according to Example 1 without trimipramine in order to reproduce published observations that activin a on its own cannot fully support undifferentiated maintenance of most hPSC lines (Vallier et al., 2005; Xiao et al., 2006). Initiation of the hPSC culture was performed according to Example 2, followed by subculturing the cells according to Example 3.
It was also aimed to reproduce the published partial self-renewal support capabilities of trimipramine in human pluripotent stem cells (Kumagai et al., 2013). […]

[2] = cited from earlier work; for biological half-life: under cell culture conditions

For CCN(CC)CCCC(C)Nc1c2ccc(Cl)cc2nc2ccc(OC)cc12 (centres unmarked) [mepacrine], the “expression of pluripotency markers SSEA-3, SSEA-4 TRA-1-60, TRA-1-81 and OCT4” value (“expression” for short) (stem cells) is given as “induce the expression of known pluripotency markers”.

In the case of CCN(CC)C(C)CN1c2ccccc2Sc2ccccc21 (centres unmarked) [profenamine], the “expression” value (stem cells) is given as “induce the expression of known pluripotency markers”.

In the case of CC(CN1c2ccccc2Sc2ccccc21)N(C)C (centres unmarked) [promethazine], the “expression” value (stem cells) is listed as “induce the expression of known pluripotency markers”.

In the case of CC(CN(C)C)CN1c2ccccc2CCc2ccccc21 (centres unmarked) [trimipramine], the “cell proliferation / expansion of hPSC” value [1] is given as “not sufficient to effectively expand the human pluripotent stem cells”, the “maintenance of undifferentiated state (morphological phenotype)” value [1] is given as “able to maintain the prototypical pluripotent morphological phenotype” and the half-life [2] is given as 23 h. The “expression” value (stem cells) was “induce the expression of known pluripotency markers”.

In the case of “FGF-2: growth factor (FGFR ligand) traditionally used in hPSC media”, the biological half-life [2] is given as 5-7 hours.

In the case of “TGF-β1: growth factor (ALK5 ligand) traditionally used in hPSC media”, the biological half-life [2] is given as 50 minutes.

B1: activin a: homodimer of the inhibin beta A subunit (UniProtKB P08476), member of the TGF-β superfamily (protein, UniProt P08476 311-426, looked up)
Inhibin beta A chain: GLECDGKVNICCKKQFFVSFKDIGWNDWIIAPSGYHANYCEGECPSHIAGTSGSSLSFHSTVINHYRMRGHSPFANLKSCCVPTKLRPMSMLYYDDGQNIIKKDIQNMIVEECGCS
modifications: Inhibin beta A chain
notes: homodimer of the inhibin beta A subunit (UniProtKB P08476), member of the TGF-β superfamily
With B1 the “cell proliferation / expansion of hPSC” value [1] was “significant cell proliferation” and the “maintenance of undifferentiated state (morphological phenotype)” value [1] was “not able to robustly support the maintenance of the tested hPSC line in an undifferentiated state”.
